Data from ChEMBL document CHEMBL1201862, “PubChem BioAssay data set” (2004).
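Results reflect a 48-hour exposure of cells in 96-well plates to compound at five concentrations. The concentration for 50% growth inhibition is given as GI50.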 Calls of active or inactive are those of the source. No stated cut-off is given here; in the data, active = GI50 up to about 1.1 µM and inactive = higher.

Columns and labels:
Experiment in all cases: growth of human tumour cells (NCI), 48 h
HOP-62 = test system: HOP-62
BT-549 = test system: BT-549
K562 = test system: K562
UACC-62 = test system: UACC-62
HT-29 = test system: HT-29
ACHN = test system: ACHN
MOLT-4 = test system: MOLT-4
HOP-92 = test system: HOP-92
KM12 = test system: KM12
HCC 2998 = test system: HCC 2998
SR = test system: SR
HCT-15 = test system: HCT-15
T47D = test system: T47D
SK-OV-3 = test system: SK-OV-3
NCI-H460 = test system: NCI-H460
SF-539 = test system: SF-539
SK-MEL-2 = test system: SK-MEL-2
OVCAR-5 = test system: OVCAR-5
SNB-19 = test system: SNB-19
OVCAR-8 = test system: OVCAR-8
SN12C = test system: SN12C
DU-145 = test system: DU-145
RPMI-8226 = test system: RPMI-8226
A498 = test system: A498
HCT-116 = test system: HCT-116
OVCAR-4 = test system: OVCAR-4
A549 = test system: A549
SF-268 = test system: SF-268
TK-10 = test system: TK-10
MDA-MB-435 = test system: MDA-MB-435
MCF7 = test system: MCF7
PC-3 = test system: PC-3
Hs-578T = test system: Hs-578T
SK-MEL-5 = test system: SK-MEL-5
EKVX = test system: EKVX
NCI-H522 = test system: NCI-H522
NCI/ADR-RES = test system: NCI/ADR-RES
CCRF-CEM = test system: CCRF-CEM
CAKI-1 = test system: CAKI-1
M14 = test system: M14
IGROV-1 = test system: IGROV-1
MDA-N = test system: MDA-N
Malme-3M = test system: Malme-3M
RXF 393 = test system: RXF 393
HL-60 = test system: HL-60
U-251 = test system: U-251
NCI-H226 = test system: NCI-H226
UACC-257 = test system: UACC-257
MDA-MB-231 = test system: MDA-MB-231
COLO 205 = test system: COLO 205
UO-31 = test system: UO-31
SK-MEL-28 = test system: SK-MEL-28
OVCAR-3 = test system: OVCAR-3
786-0 = test system: 786-0
NCI-H23 = test system: NCI-H23
SF-295 = test system: SF-295
LOX IMVI = test system: LOX IMVI
SW-620 = test system: SW-620
SNB-75 = test system: SNB-75

Measured: GI50

N#CC(=C1CCCCC1)c1nc2ccccc2o1
49.4 µM: HCT-15
inactive: HOP-62 > 100 µM | BT-549 32.1 µM | K562 69.8 µM | UACC-62 68.9 µM | HT-29 61.5 µM | ACHN > 100 µM | MOLT-4 > 100 µM | HOP-92 34.5 µM | KM12 32 µM | HCC 2998 50 µM | SR 37.9 µM | T47D 19.4 µM | SK-OV-3 > 100 µM | NCI-H460 > 100 µM | SF-539 31.7 µM | SK-MEL-2 > 100 µM | OVCAR-5 > 100 µM | SNB-19 > 100 µM | OVCAR-8 47.4 µM | SN12C > 100 µM | DU-145 > 100 µM | RPMI-8226 25.9 µM | A498 > 100 µM | HCT-116 55.3 µM | OVCAR-4 52.8 µM | A549 51.1 µM | SF-268 55.2 µM | TK-10 > 100 µM | MDA-MB-435 > 100 µM | MCF7 53.1 µM | PC-3 56.9 µM | Hs-578T 58.7 µM | SK-MEL-5 41.4 µM | EKVX 34.5 µM | NCI-H522 20.6 µM | NCI/ADR-RES 40 µM | CCRF-CEM 49.1 µM | CAKI-1 64.1 µM | M14 80.7 µM | IGROV-1 83 µM | MDA-N 74.5 µM | Malme-3M > 100 µM | RXF 393 > 100 µM | HL-60 35.2 µM | U-251 57.9 µM | NCI-H226 56.2 µM | UACC-257 > 100 µM | MDA-MB-231 > 100 µM | COLO 205 19.6 µM | UO-31 47.2 µM | SK-MEL-28 > 100 µM | OVCAR-3 56.5 µM | 786-0 > 100 µM | NCI-H23 66.8 µM | SF-295 > 100 µM

CC1CCC(=O)C(C(=O)CC2CC(=O)NC(=O)C2)C1 (centres undefined)
inactive: HOP-62 > 100 µM | BT-549 > 100 µM | K562 > 100 µM | UACC-62 > 100 µM | HT-29 > 100 µM | ACHN > 100 µM | MOLT-4 > 100 µM | HOP-92 > 100 µM | KM12 > 100 µM | HCC 2998 > 100 µM | SR > 100 µM | T47D > 100 µM | SK-OV-3 > 100 µM | NCI-H460 > 100 µM | SF-539 > 100 µM | SK-MEL-2 > 100 µM | OVCAR-5 > 100 µM | SNB-19 > 100 µM | OVCAR-8 > 100 µM | SN12C > 100 µM | DU-145 > 100 µM | RPMI-8226 > 100 µM | A498 > 100 µM | HCT-116 > 100 µM | OVCAR-4 > 100 µM | A549 > 100 µM | LOX IMVI > 100 µM | SF-268 > 100 µM | TK-10 > 100 µM | MDA-MB-435 > 100 µM | MCF7 > 100 µM | PC-3 > 100 µM | Hs-578T > 100 µM | SK-MEL-5 > 100 µM | EKVX > 100 µM | NCI/ADR-RES > 100 µM | CCRF-CEM > 100 µM | CAKI-1 > 100 µM | M14 > 100 µM | IGROV-1 > 100 µM | MDA-N > 100 µM | Malme-3M > 100 µM | RXF 393 > 100 µM | HL-60 > 100 µM | U-251 > 100 µM | NCI-H226 > 100 µM | UACC-257 > 100 µM | MDA-MB-231 > 100 µM | SW-620 > 100 µM | COLO 205 > 100 µM | UO-31 > 100 µM | SK-MEL-28 > 100 µM | SNB-75 > 100 µM | OVCAR-3 > 100 µM | 786-0 > 100 µM | NCI-H23 > 100 µM | SF-295 > 100 µM
> 100 µM: HCT-15
